Source: patent US8785488B2 (Exelixis Patent Company LLC, priority 2009, dated 2014)

Experiments:
human TGR5 (h-TGR5) = target: T1, human TGR5 (h-TGR5) (Homo sapiens, UniProt Q8TDU6); assay: TGR5/CRE-Luciferiase Assay (HEK 293 hTGR5/CRE-Luc cells); type: cell-based; conditions: h-TGR5 CRE-Luc EC50, Table 1; read-out: CRE-Luc (EC50)
T1 construct: expressed in transfected cells
T1 sequence (Q8TDU6 1-330): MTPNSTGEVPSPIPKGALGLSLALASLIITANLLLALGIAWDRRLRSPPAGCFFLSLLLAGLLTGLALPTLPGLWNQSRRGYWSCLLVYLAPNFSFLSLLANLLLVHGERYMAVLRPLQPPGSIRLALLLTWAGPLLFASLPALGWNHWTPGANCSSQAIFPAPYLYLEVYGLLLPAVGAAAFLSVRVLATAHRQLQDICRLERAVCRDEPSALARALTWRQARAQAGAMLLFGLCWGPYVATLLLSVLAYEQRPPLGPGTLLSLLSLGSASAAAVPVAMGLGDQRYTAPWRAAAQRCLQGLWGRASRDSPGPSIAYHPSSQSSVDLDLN
Summary of the method: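 HEK293 cells stably carrying hTGR5 and a CRE-luciferase reporter were exposed to serially diluted compounds (diluted in DMEM with 5% DMSO) for 6 h. Cells were then lysed in luciferase buffer, luminescence was read, and EC50 values were derived from dose-response curves.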

h-TGR5 = target: T2, h-TGR5 (Homo sapiens, UniProt Q8TDU6); assay: TGR5 cAMP Assay using Cisbio cAMP Dynamic2 htrf kit (hTGR5CRE-luc HEK 293 cells); type: cell-based; conditions: h-TGR5 cAMP EC50, Table 1; read-out: cAMP (EC50)
T2 construct: expressed in transfected cells
T2 sequence (Q8TDU6 1-330): T1 sequence (Q8TDU6 1-330)
Summary of the method: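 […], 4000 hTGR5CRE-luc HEK 293 cells per well, with 0.5 mM IBMX and d2-cAMP, were incubated 30 min at room temperature with compounds in 8-point half-log series, in quadruplicate.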

SMILES	EC50 (human TGR5 (h-TGR5))	EC50 (h-TGR5)
CC(C)NC(=O)NS(=O)(=O)c1ccc(CSc2ncc(C(C)(C)c3ccc(F)c(C#N)c3)n2-c2ccc(F)cc2)c(Cl)c1 [3-chloro-4-[({5-[1-(3-cyano-4-fluorophenyl)-1-methylethyl]-1-(4-fluorophenyl)-1H-imidazol-2-yl}thio)methyl]-N-{[(1-methylethyl)amino]carbonyl}benzenesulfonamide]	0.1 to 1 µM	0.1 to 1 µM
COc1cc(C(C)(C)c2c(Cl)nc(SCC3CCN(c4nnn[nH]4)CC3)n2-c2ccc(F)cc2)ccc1Cl [4-({[4-chloro-5-{1-[4-chloro-3-(methyloxy)phenyl]-1-methylethyl}-1-(4-fluorophenyl)-1H-imidazol-2-yl]thio}methyl)-1-(1H-tetrazol-5-yl)piperidine]	< 0.1 µM	1 to 10 µM
COc1cc(-n2c(C(C)(C)c3ccc(F)c(Cl)c3)cnc2SCc2c(F)cc(OCCNC(=N)N)cc2F)ccc1F [1-[2-({4-[({5-[1-(3-chloro-4-fluorophenyl)-1-methylethyl]-1-[4-fluoro-3-(methyloxy)phenyl]-1H-imidazol-2-yl}thio)methyl]-3,5-difluorophenyl}oxy)ethyl]guanidine]	< 0.1 µM	< 0.1 µM
COc1cc(C(C)(C)c2cnc(SCc3c(F)cc(C(C)(C)O)cc3Cl)n2-c2ccc(F)cc2)ccc1Cl [2-[3-chloro-4-({[5-{1-[4-chloro-3-(methyloxy)phenyl]-1-methylethyl}-1-(4-fluorophenyl)-1H-imidazol-2-yl]thio}methyl)-5-fluorophenyl]propan-2-ol]	< 0.1 µM	< 0.1 µM
COc1cc(C(C)(C)c2cnc(SCc3ccnc(N)c3)n2-c2ccc(F)cc2)ccc1Cl [4-({[5-{1-[4-chloro-3-(methyloxy)phenyl]-1-methylethyl}-1-(4-fluorophenyl)-1H-imidazol-2-yl]thio}methyl)pyridin-2-amine]	0.1 to 1 µM	0.1 to 1 µM
COc1cc(C(C)(C)c2cnc(SCc3ccc(S(=O)(=O)NC(=O)NN4CCCC4)cc3Cl)n2-c2ccc(F)c(F)c2)ccc1Cl [3-chloro-4-({[5-{1-[4-chloro-3-(methyloxy)phenyl]-1-methylethyl}-1-(3,4-difluorophenyl)-1H-imidazol-2-yl]thio}methyl)-N-[(pyrrolidin-1-ylamino)carbonyl]benzenesulfonamide]	0.1 to 1 µM	0.1 to 1 µM
COc1cc(C(C)(C)c2cnc(SCc3c(F)cc(OCCCNC(=N)N)cc3F)n2-c2ccc(F)cc2)ccc1F [1-(3-{[3,5-difluoro-4-({[5-{1-[4-fluoro-3-(methyloxy)phenyl]-1-methylethyl}-1-(4-fluorophenyl)-1H-imidazol-2-yl]thio}methyl)phenyl]oxy}propyl)guanidine]	< 0.1 µM	< 0.1 µM
COc1cc(C(C)(C)c2cnc(SCc3cc(OCCNC(=N)N)c(Cl)cc3F)n2-c2ccc(F)cc2)ccc1Cl [1-(2-{[2-chloro-5-({[5-{1-[4-chloro-3-(methyloxy)phenyl]-1-methylethyl}-1-(4-fluorophenyl)-1H-imidazol-2-yl]thio}methyl)-4-fluorophenyl]oxy}ethyl)guanidine]	0.1 to 1 µM	< 0.1 µM
CC(C)(c1ccc(F)cc1)c1cnc(SCc2ccc(S(=O)(=O)NC(=O)NN3CCCC3)cc2Cl)n1-c1ccc(F)c(Cl)c1 [3-chloro-4-[({1-(3-chloro-4-fluorophenyl)-5-[1-(4-fluorophenyl)-1-methylethyl]-1H-imidazol-2-yl}thio)methyl]-N-[(pyrrolidin-1-ylamino)carbonyl]benzenesulfonamide]	0.1 to 1 µM	1 to 10 µM
CC(C)(c1ccc(Cl)c(Cl)c1)c1cnc(SCc2ccc(F)c(C(=O)O)c2)n1-c1ccc(F)cc1 [5-[({5-[1-(3,4-dichlorophenyl)-1-methylethyl]-1-(4-fluorophenyl)-1H-imidazol-2-yl}thio)methyl]-2-fluorobenzoic acid]	0.1 to 1 µM	0.1 to 1 µM
COc1cc(-n2c(C(C)(C)c3ccc(S(N)(=O)=O)c(Cl)c3)cnc2SCc2ccc(S(=O)(=O)NC(=O)NN3CCOCC3)cc2Cl)ccc1F [4-{[(5-{1-[4-(aminosulfonyl)-3-chlorophenyl]-1-methylethyl}-1-[4-fluoro-3-(methyloxy)phenyl]-1H-imidazol-2-yl)thio]methyl}-3-chloro-N-[(morpholin-4-ylamino)carbonyl]benzenesulfonamide]	0.1 to 1 µM	< 0.1 µM
COc1ccc(C(C)(C)c2cnc(SCc3ccc(F)c(C(N)=O)c3)n2-c2ccc(F)cc2)cc1OC [5-({[5-{1-[3,4-bis(methyloxy)phenyl]-1-methylethyl}-1-(4-fluorophenyl)-1H-imidazol-2-yl]thio}methyl)-2-fluorobenzamide]	< 0.1 µM	< 0.1 µM
COc1cc(-n2c(C(C)(C)c3ccc(Cl)c(Cl)c3)cnc2SCc2c(F)cccc2Cl)ccc1F [2-{[(2-chloro-6-fluorophenyl)methyl]thio}-5-[1-(3,4-dichlorophenyl)-1-methylethyl]-1-[4-fluoro-3-(methyloxy)phenyl]-1H-imidazole]	< 0.1 µM	< 0.1 µM
CC(C)NC(=O)NS(=O)(=O)c1cc(CSc2ncc(C(C)(C)c3ccc(Cl)c(Cl)c3)n2-c2ccc(F)cc2)ccc1Cl [2-chloro-5-[({5-[1-(3,4-dichlorophenyl)-1-methylethyl]-1-(4-fluorophenyl)-1H-imidazol-2-yl}thio)methyl]-N-{[(1-methylethyl)amino]carbonyl}benzenesulfonamide]	0.1 to 1 µM	0.1 to 1 µM
COc1cc(-n2c(C(C)(C)c3ccc(S(N)(=O)=O)c(Cl)c3)cnc2SCc2c(F)cc(C(=O)NCCC(=O)O)cc2F)ccc1F [N-[(4-{[(5-{1-[4-(aminosulfonyl)-3-chlorophenyl]-1-methylethyl}-1-[4-fluoro-3-(methyloxy)phenyl]-1H-imidazol-2-yl)thio]methyl}-3,5-difluorophenyl)carbonyl]-beta-alanine]	< 0.1 µM	< 0.1 µM
CC(C)(c1ccc(Cl)c(Cl)c1)c1cnc(SCc2c(F)cc(C(=O)O)cc2F)n1-c1ccc(F)c(C(F)F)c1 [4-[({5-[1-(3,4-dichlorophenyl)-1-methylethyl]-1-[3-(difluoromethyl)-4-fluorophenyl]-1H-imidazol-2-yl}thio)methyl]-3,5-difluorobenzoic acid]	< 0.1 µM	0.1 to 1 µM
COc1cc(C(C)(C)c2cnc(SCc3cc(S(N)(=O)=O)c(F)cc3Cl)n2-c2ccc(F)cc2)ccc1Cl [4-chloro-5-({[5-{1-[4-chloro-3-(methyloxy)phenyl]-1-methylethyl}-1-(4-fluorophenyl)-1H-imidazol-2-yl]thio}methyl)-2-fluorobenzenesulfonamide]	< 0.1 µM	< 0.1 µM
COc1cc(C(C)(C)c2cnc(SCc3ccc(S(=O)(=O)NC(=O)N4CCCC4)cc3Cl)n2-c2ccc(F)cc2)ccc1Cl [N-{[3-chloro-4-({[5-{1-[4-chloro-3-(methyloxy)phenyl]-1-methylethyl}-1-(4-fluorophenyl)-1H-imidazol-2-yl]thio}methyl)phenyl]sulfonyl}pyrrolidine-1-carboxamide]	0.1 to 1 µM	< 0.1 µM
CC(C)NC(=O)NS(=O)(=O)c1ccc(CSc2ncc(C(C)(C)c3ccc(Cl)c(Cl)c3)n2-c2ccc(F)cc2)c(Cl)c1 [3-chloro-4-[({5-[1-(3,4-dichlorophenyl)-1-methylethyl]-1-(4-fluorophenyl)-1H-imidazol-2-yl}thio)methyl]-N-{[(1-methylethyl)amino]carbonyl}benzenesulfonamide]	0.1 to 1 µM	0.1 to 1 µM
